One assay deals with STAT5 phosphorylation. The assay can be described thus: Cell washout experiment, IL-15-stimulated CTLL-2 cells. Format: cell-based, Mouse. To be noted: CTLL-2, 2 h treatment, washed three times, IL-15 30 min. The protocol:
The washout procedures are as follows: CTLL-2 cells were treated with compounds for 2 hours. Then, for washout groups, cells were washed three times with PBS. The non-washout groups were kept constant. Cells were then stimulated with IL-15 for 30 min, lysed, and subjected to standard Western blot. Cells, treated with compounds, were extensively washed with PBS.

The subject of the next assay is TNF-α release. The assay can be described thus: LPS-induced TNF-α release assay in PBMCs (ELISA). Format: cell-based, human. To be noted: LPS-challenged PBMCs, 24 h. The protocol: (§1) The LPS-induced IL-6 and TNF-α release assay was carried out as follows: frozen PBMCs (from Allcells) were thawed in RPMI1640 (Thermo Fisher) containing 10% FBS and recovered overnight at 37° C. The next day, cells were diluted to 1×10^6 cells/mL and seeded (500 μL) in 6-well plates. Compounds or DMSO (5 μL, serially diluted in DMSO) were added to the plates and incubated with cells for 2 h at 37° C., followed by stimulation with LPS (5 μL, 1 μg/mL) and incubation for 24 h at 37° C. in 5% CO2. Supernatants were collected for determination of IL-6 and TNF-α levels using human IL-6 or human THF-α DuoSet ELISA Kits (R&D Systems) according to the manufacturer's instructions.

The next assay concerns IL-6 release. In words: LPS-induced IL-6 release assay in PBMCs (ELISA). Format: cell-based, human. To be noted: LPS-challenged PBMCs, 24 h. The protocol:
as §1
In general terms: An ELISA detects its analyte on a solid surface through an enzyme-linked reagent.

The next assay concerns panel of kinases. The following applies: tested at 1 μM.
For assay [1], the system named is IL-15-induced STAT5 phosphorylation. The assay can be described thus: IL-15-induced STAT5 phosphorylation in PBMC (Western blot). Format: cell-based, human. On the technique in general: A western blot detects proteins with antibodies after separation by electrophoresis.
In the next assay the test system is MCP-1 release. The assay can be described thus: IL-6 stimulated MCP-1 release assay. Format: cell-based, human. The protocol: as §1
IL-6 stimulated inflammatory cytokine MCP-1 release assay was performed in a similar way.

Assay [2] concerns STAT3 phosphorylation (IL-6 signal pathway). In words: Cellular selectivity assay: IL-6-stimulated STAT3 phosphorylation in PBMCs. Format: cell-based, human. The following applies: IL-6, doses as high as 10 μM.
For the next assay, the target named is PKCα (Homo sapiens, UniProt P17252). The assay can be described thus: Selectivity assay against a panel of kinases: PKCα. Format: biochemical. The following applies: tested at 1 μM.
Assay [3] relates to IL-2-induced STAT5 phosphorylation. The assay can be described thus: IL-2-induced STAT5 phosphorylation in PBMC (Western blot).
A further assay concerns the target GSK3β (Homo sapiens, UniProt P49841). In words: Selectivity assay against a panel of kinases: GSK3β. Format: biochemical. To be noted: tested at 1 μM.
The target in the next assay is PKCγ (Homo sapiens, UniProt P05129). In words: Selectivity assay against a panel of kinases: PKCγ. Format: biochemical. The following applies: tested at 1 μM.
Assay [4] deals with STAT1 phosphorylation (IFN-α signal pathway). In words: Cellular selectivity assay: IFN-α-stimulated STAT1 phosphorylation in PBMCs. Format: cell-based, human. The following applies: doses as high as 10 μM.
In assay [5] the test system is phosphorylation of downstream substrates of JAKs. To be noted: PBMCs; IL-15, IL-6, IFN-α.

Experimental findings from patent publication US11578060B2, “JAK3 selective inhibitor” (PEKING UNIVERSITY SHENZHEN GRADUATE SCHOOL, priority 2018, dated 2023) are described below.

GSK3β, sequence (P49841 whole entry, species assumed): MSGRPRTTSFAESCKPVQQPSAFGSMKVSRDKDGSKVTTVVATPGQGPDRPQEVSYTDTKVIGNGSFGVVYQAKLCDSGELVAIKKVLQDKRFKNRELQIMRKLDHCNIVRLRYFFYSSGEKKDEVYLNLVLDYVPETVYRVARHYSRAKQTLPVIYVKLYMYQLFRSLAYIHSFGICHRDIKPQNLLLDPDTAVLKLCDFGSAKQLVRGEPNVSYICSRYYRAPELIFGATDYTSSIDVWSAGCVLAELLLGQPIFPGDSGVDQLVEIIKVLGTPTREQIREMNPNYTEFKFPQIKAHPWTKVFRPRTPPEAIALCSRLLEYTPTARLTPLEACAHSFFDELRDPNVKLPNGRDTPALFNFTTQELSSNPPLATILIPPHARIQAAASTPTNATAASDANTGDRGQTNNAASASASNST

For `CC(C)(O)C(=O)N1CCN(c2ccc(C(F)(F)F)c(C3=C(c4c[nH]c5ccccc45)C(=O)NC3=O)c2)CC1` [NIBR3049, reference compound], the “inhibition of STAT5 phosphorylation after washing out with PBS” value (“inhibition of STAT5 phosphorylation” for short) with STAT5 phosphorylation was “almost lost after washing out”.

For the molecule `C=CC(=O)N1CCN(c2ccc([N+](=O)[O-])c(C3=C(c4c[nH]c5ccccc45)C(=O)NC3=O)c2)CC1` [Compound 32, 3-(5-(4-acryloylpiperazin-1-yl)-2-(nitro)phenyl)-4-(1H-indol-3-yl)-1H-pyrrole-2,5-dione], in the assay with TNF-α release, the “effect on LPS-induced release of TNF-α” value is “significantly inhibited”. In addition, the “effect on LPS-induced release of IL-6” value in the assay with IL-6 release is listed as “significantly inhibited”. Moreover, the “inhibition of most kinases of the panel” value in the assay with panel of kinases is given as “no more than 50%”. Also, in assay [1] (PBMC), the “inhibitory activity against IL-15-induced STAT5 phosphorylation compared with NIBR3049” value was “higher inhibitory activity”. Further, the “concentration that effectively abrogated phosphorylation of STAT5” value in [1] (PBMCs, IL-15 stimulation) stood at 300 nM. Further, the “inhibition of STAT5 phosphorylation” value in the assay on STAT5 phosphorylation was “sustained inhibition of STAT5 phosphorylation”. In addition, in the assay on MCP-1 release, the “effect on IL-6-induced MCP-1 release” value was “did not inhibit”. Besides, the “inhibition of STAT3 phosphorylation” value in assay [2] is “only partial inhibition”. Further, the inhibition at 1 µM against PKCα, at GSK3β and on PKCγ was > 50% each time. Also, in [3], the “inhibitory activity against IL-2-induced STAT5 phosphorylation compared with NIBR3049” value is “higher inhibitory activity”. For the same molecule, the “inhibition of STAT1 phosphorylation” value in [4] is reported as “only partial inhibition”.

On to Tofacitinib [reference compound], for which, in the assay with TNF-α release, the “effect on LPS-induced release of TNF-α” value was “increased cytokine production in different degrees”. The “effect on LPS-induced release of IL-6” value in the assay on IL-6 release is listed as “increased cytokine production in different degrees”. The “cellular selectivity among JAKs (three cytokines)” value in assay [5] is on record as “did not show obvious selectivity”. Moreover, the “inhibition of STAT5 phosphorylation” value in the assay on STAT5 phosphorylation is on record as “almost lost after washing out”. The “effect on IL-6-induced MCP-1 release” value with MCP-1 release is reported as “did not inhibit”.
